We go through two molecules from ChEMBL document CHEMBL1671791, “Electron paramagnetic resonance (EPR) study of spin-labeled camptothecin derivatives: a different look of the ternary complex” (J Med Chem, 2011).

Structures are written as SMILES. Active and inactive are the calls of the source. No cut-off for these calls is given here.

Assay [1] concerns the target T1, DNA topoisomerase 1 (Homo sapiens) (UniProt P11387).
T1 sequence (whole entry): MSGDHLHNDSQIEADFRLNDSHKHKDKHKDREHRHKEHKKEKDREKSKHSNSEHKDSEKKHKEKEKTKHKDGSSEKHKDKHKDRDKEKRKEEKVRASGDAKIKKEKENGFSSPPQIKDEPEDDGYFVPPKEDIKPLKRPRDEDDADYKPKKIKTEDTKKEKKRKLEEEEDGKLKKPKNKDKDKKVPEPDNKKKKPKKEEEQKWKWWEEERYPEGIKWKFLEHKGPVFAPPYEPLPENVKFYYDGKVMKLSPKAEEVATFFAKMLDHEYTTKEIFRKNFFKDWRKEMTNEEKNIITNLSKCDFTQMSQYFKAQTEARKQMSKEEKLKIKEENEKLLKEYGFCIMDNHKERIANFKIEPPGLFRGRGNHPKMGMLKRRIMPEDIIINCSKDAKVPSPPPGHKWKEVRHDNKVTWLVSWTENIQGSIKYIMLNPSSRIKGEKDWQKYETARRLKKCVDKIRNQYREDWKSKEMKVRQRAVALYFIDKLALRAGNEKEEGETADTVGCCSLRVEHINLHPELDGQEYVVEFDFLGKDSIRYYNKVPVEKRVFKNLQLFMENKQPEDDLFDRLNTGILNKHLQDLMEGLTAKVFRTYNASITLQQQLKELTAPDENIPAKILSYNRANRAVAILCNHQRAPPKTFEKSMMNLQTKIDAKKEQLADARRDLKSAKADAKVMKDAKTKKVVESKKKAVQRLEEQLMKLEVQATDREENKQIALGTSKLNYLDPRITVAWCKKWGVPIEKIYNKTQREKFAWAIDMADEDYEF
Description: Binding affinity to human recombinant DNA topoisomerase 1 at 20 uM by electron paramagnetic resonance analysis.

Assay [2] deals with T1, DNA topoisomerase 1 (Homo sapiens). The assay is described as follows: Inhibition of human recombinant DNA topoisomerase 1-mediated DNA cleavage at 0.1 to 100 uM after 20 mins.
Assay [3] has the same target. Description: Reversible inhibition of human recombinant DNA topoisomerase 1-mediated DNA cleavage at 0.1 to 100 uM after 20 mins.

Take `CC[C@@]1(O)C(=O)OCc2c1cc1n(c2=O)Cc2c-1nc1ccccc1c2/C=N/C1CC(C)(C)N([O])C(C)(C)C1`: the outcome in assay [1] was Active. The inhibition entry in assay [2] and in assay [3] was “Active” in each case.
Consider `CC[C@@]1(O)C(=O)OCc2c1cc1n(c2=O)Cc2c-1nc1ccccc1c2C(=O)NC1CC(C)(C)N([O])C(C)(C)C1`, for which the inhibition entry in assay [2] is “Active”.
